Data: paper PMC8302598, “Rapid discovery of self-assembling peptides with one-bead one-compound peptide library” (Nature Communications, 2021)

Assays:
[1] = Turbidity test (transmittance spectra); type: physicochemical; details: 20 μM peptide in water
Experimental: To further confirm the peptide assembling in water, the solutions of pentapeptide were diluted to 20 μM for turbidity test.

[2] = Appearance and TEM of 30 mM peptide in water; type: physicochemical; details: for Nanostructure under TEM: 30 mM in H2O; for Appearance of peptide in water: 30 mM in water, sonicated 3 min
Experimental: To further characterize these self-assembling peptides, we selected two positive peptides (FFVDF and YFTEF) and a negative control peptide (PFTTR) for the following studies: Fourier transform infrared (FT-IR) spectroscopy, UV−Vis spectra, and transmission electron microscopy (TEM).
Pentapeptides monomers were dissolved in DMSO at a concentration of 5.0 mM, followed by quick injection into water at a volume ratio of 1:99 for DMSO and H2O to obtain the nanomaterials solution (50 μM). For 30 mM pentapeptide solution, the pentapeptide was dissolved in water and sonicated for 3 min.
The pentapeptide solution with the concentration of 20 μM (10 μL) was placed dropwise onto a copper mesh for 5 min, then most of the liquid was removed through a filter paper. Ten microliters of uranyl acetate solution were employed to stain the samples for 5 min, followed by drying the spare liquid with the filter. Finally, the copper mesh was washed with 10 μL of deionized water, which was blotted after staining and drying at room temperature. All of the samples were observed by TEM (Tecnai G2 20 S-TWIN) at an accelerating voltage of 200 kV.

Substance	Transmittance at 400 nm [1] [%]	Nanostructure under TEM [2]	Appearance of peptide in water [2]
YFTEF [self-assembling pentapeptide identified from OBOC library]	98	entangled fibrous network	milky hydrogel
FFVDF [self-assembling pentapeptide identified from OBOC library, forms nanofibers]	88	entangled fibrous network	milky white solution
